Source: patent US20080153921A1, “Lycopene Formulations For the Treatment of Atherosclerotic Conditions” (CAMBRIDGE, priority 2005, published 2008)

Key:
[1] = system: lipid oxidising abzymes (atheroma extracted IgG); experiment: Testing of anti-abzyme activity (lipid oxidation, MDA/thiobarbituric acid assay); format: biochemical, human
Method: Antibodies were extracted from advanced atherosclerotic lesions of human aorta retrieved from two male patients […], during bypass surgery of an abdominal aortal stenosis at the Centre of Cardio-Vascular Surgery of the Medical University of Rostov-na-Donu, Russian Federation. After recovery these samples were immediately put in 30% w/v solution of NaCl and stored at 0-4° C. for 1 month prior to examination. […]
The antibodies were extracted and analysed separately from the lesions of the two pieces of the abdominal aorta obtained from the […] different patients. […]
Samples of the human serum were incubated with different concentrations of lycopene, lycopene/lactoprotein conjugate or alone (control samples) with the presence of atheroma extracted IgG for 16 hours at 37° C. at pH 5.6. The level of lipid peroxidation was assessed as a level of MDA concentration which was measured by spectrophotometric method [Draper, H. H. et al Free Radic. […] Briefly, the level of abzymes in a sample was determined as follows: Samples of sera were diluted 1:1 by 0.05M acetate buffer pH 4.0 to make the final pH of these samples between 5.6-5.8. […] The supernatants were collected and their absorption measured at λ 525 nm to determine the concentration of malondialdehydes (MDA), which are products of lipid peroxidation.

lipid oxidising abzymes = experiment: ELISA based abzyme assay; format: biochemical, human; settings: in vitro
Method: ELISA assays were performed using Medac materials and reagents, which were used in accordance with the manufacturers instructions.
Briefly, serum samples from patients were treated as described above. 50 μl of sample diluent was pipetted into microtitre well A1 as blank, and 50 μl of the negative control, Positive Control and the diluted patients' samples were pipetted into other microtitre wells. The microplate wells were incubated for 60 min (±5 min) at 37 °C (±1° C.) in a humid chamber and then washed three times with 200 μl wash buffer per well. 50 μl of Conjugate was then added to each well and the microplate wells incubated again for 60 min (±5 min) at 37 °C (±1° C.) in a humid chamber and then washed. 50 μl of TMB-Substrate, was added to each well and the microplate wells incubated for 30 min (±2 min) at 37 °C (±1° C.) in a humid chamber. The reaction was stopped by adding 100 μl of Stop Solution, to each well.
Photometric reading was performed at 450 nm (ref. 620-650 nm) within 15 min after adding the Stop Solution.
To calculate the results, the OD value of the blank (well A1) was subtracted from all other OD values. Preferably, the OD value of the blank was <0.150, the mean OD value of the Negative Control was <0.100 and the OD value of the Positive Control was >0.800. Cut-off mean OD value of the Negative Control+0.380. Grey zone Cut-off±10%

## CC(C)=CCC/C(C)=C/C=C/C(C)=C/C=C/C(C)=C/C=C/C=C(C)/C=C/C=C(C)/C=C/C=C(\C)CCC=C(C)C [Lycopene]
[1]; abzyme inhibition
  Maximum inhibition in vitro: 0%
[1]; lipid oxidation assay, in vitro
  abzyme inhibition activity: ineffective
Lipid oxidising abzymes
  abzyme inhibition activity: ineffective
